{"source": "patent EP1068226B1", "about": "“LIPOPEPTIDES INDUCING T LYMPHOCYTIC CYTOTOXICITY BEARING AT LEAST ONE AUXILIARY T EPITOPE, AND USES FOR VACCINATION” (INSTITUT NATIONAL DE LA SANTE ET DE LA RECHERCHE MEDICALE …, priority 1998, dated 1999)", "key": {"[1]": {"assay": "Solubility and filterability of the lipopeptides", "assay_type": "physicochemical", "method": "Le lipopeptide n° 3 est soluble dans l'acide acétique à 80%. Il peut être stérilisable par filtration sur un microfiltre de 0,22 µm. Il peut être en outre dissous dans une solution DMSO/eau 10% V/V. La mesure de la masse par spectrométrie PDMS-TOF confirme la présence du produit attendu. Le produit s'avère purifiable après injection d'une solution concentrée dans le DMSO, sur colonne Vydac C4, à 60°C, en utilisant un gradient d'acétonitrile, en présence du contre-ion TFA. Le produit est caractérisable par HPLC selon plusieurs méthodes résolutives conventionnelles, sur colonnes Vydac C4, Zorbax C3, Zorbax CN, Zorbax C1, à 60°C, à l'aide de gradients d'acétonitrile en présence d'un contre-ion TFA, ou en utilisant un modificateur organique, tel que l'isopropanol ou le butanol en isocratique.\nLe trifluoroacétate du lipopeptide n°3 est soluble dans le DMSO (20-25 mg/mL), et reste soluble après dilution par de l'eau (DMSO 10%). L'échange du contre-ion trifluoroacétate pour un contre-ion acétate peut être réalisé par RP-HPLC sur une colonne C4: le produit dissous dans le DMSO à 80% est injecté sur la colonne équilibrée par le solvant A (acide acétique à 5% dans l'eau). Après élimination des produits non retenus (contre-ions TFA, sels), le produit est élué par l'aide d'un gradient du solvant A vers le solvant B (acétonitrile 80% - acide acétique à 5% - eau 15%). […]"}, "[2]": {"tested_on": "CTL spécifiques dans les PBMC de patients séropositifs pour HIV", "assay": "ELISPOT IFN-γ test on human PBMC of HIV-seropositive donors (antigenicity)", "assay_type": "cell-based, homme", "conditions": "PBMC of patient HLA-B7 Z118; figure 6c", "method": "Des donneurs séropositifs pour HIV ont été sélectionnés pour leur expression en molecules HLA de classe I selon des données bien connues de l'homme du métier en matière de restriction vis-à-vis des peptides et lipopeptides.\nDes microplaques de nitrocellulose (Millipore, Bedford, MA) ont été incubées pendant la nuit à 4°C avec 1 µg/ml d'un anticorps de capture anti-Interféron-γ humain dilué dans un tampon carbonate/bicarbonate à pH 9,6 (100 µl/puits). Après cinq lavages, les plaques ont été saturées pendant 2 heures à 37°C avec 200 µl puis lavées. Pour les cultures de cellules humaines, le milieu complet était composé de RPMI 1640, 10% de sérum albumine bovine, 2mM glutamine, d'antibiotiques et de β2-mercaptoéthanol (5 x 10^-5M). Pour le test avec le peptide, des PBMC de patients ont été ajoutés directement dans les microplaques de nitrocellulose (2 x 10^5 cellules/puits) et incubés pendant 24 heures à 37°C en présence de […] du peptide. Pour le test des lipopeptides, les PBMC ont été incubés pendant la nuit à 37 °C avec les lipopeptides, puis ont été lavés et irradiés (3000 rads). Ces cellules ont été utilisées comme cellules stimulatrices dans une co-culture (2 x 10^5 cellules par puits) avec des PBMC syngéniques ( rapport 1/1) dans des plaques de nitrocellulose pendant 24 heures à 37°C. […]"}}, "note": "Residues, ends and D or L forms follow the SMILES beside them. *: point of attachment. Palmitoyl = CCCCCCCCCCCCCCCC(=O)*"}
{"compound": "CCCCCCCCCCCCCCCC(=O)NCCCC[C@H](NC(=O)CCCCCCCCCCCCCCC)C(=O)N[C@@H](CO)C(=O)N[C@@H](CO)C(=O)N[C@@H](CCC(N)=O)C(=O)N[C@@H](Cc1ccc(O)cc1)C(=O)N[C@H](C(=O)N[C@@H](CCCCN)C(=O)N[C@@H](C)C(=O)N[C@@H](CC(N)=O)C(=O)N[C@@H](CO)C(=O)N[C@@H](CCCCN)C(=O)N[C@@H](Cc1ccccc1)C(=O)N[C@H](C(=O)NCC(=O)N[C@H](C(=O)N[C@H](C(=O)N[C@@H](CCC(=O)O)C(=O)N[C@@H](CCCNC(=N)N)C(=O)NCC(=O)N[C@@H](CCCNC(=N)N)C(=O)N[C@@H](C)C(=O)N[C@@H](C)C(=O)NCC(=O)N[C@H](C(=O)NCC(=O)N[C@H](C(=O)N[C@@H](CC(C)C)C(=O)N[C@H](C(=O)N[C@H](C(=O)O)C(C)C)[C@@H](C)O)[C@@H](C)CC)[C@@H](C)CC)[C@@H](C)O)[C@@H](C)CC)[C@@H](C)CC)[C@@H](C)CC", "note": "[lipopeptide n°2] (Palmitoyl-K(Palmitoyl)SSQYIKANSKFIGITERGRAAGIGILTV-OH)", "values": [{"measurement": "solubilité dans l'eau", "setting": "[1]; water", "result": "comportement voisin du lipopeptide n°1"}]}
{"compound": "CCCCCCCCCCCCCCCC(=O)NCCCC[C@H](N)C(=O)N[C@@H](CO)C(=O)N[C@@H](CO)C(=O)N[C@@H](CCC(N)=O)C(=O)N[C@@H](Cc1ccc(O)cc1)C(=O)N[C@H](C(=O)N[C@@H](CCCCN)C(=O)N[C@@H](C)C(=O)N[C@@H](CC(N)=O)C(=O)N[C@@H](CO)C(=O)N[C@@H](CCCCN)C(=O)N[C@@H](Cc1ccccc1)C(=O)N[C@H](C(=O)NCC(=O)N[C@H](C(=O)N[C@H](C(=O)N[C@@H](CCC(=O)O)C(=O)N[C@@H](CCCNC(=N)N)C(=O)NCC(=O)N[C@@H](CCCNC(=N)N)C(=O)N[C@@H](C)C(=O)N[C@@H](C)C(=O)NCC(=O)N[C@H](C(=O)NCC(=O)N[C@H](C(=O)N[C@@H](CC(C)C)C(=O)N[C@H](C(=O)N[C@H](C(=O)O)C(C)C)[C@@H](C)O)[C@@H](C)CC)[C@@H](C)CC)[C@@H](C)O)[C@@H](C)CC)[C@@H](C)CC)[C@@H](C)CC", "note": "[lipopeptide n°4] (H-K(Palmitoyl)SSQYIKANSKFIGITERGRAAGIGILTV-OH)", "values": [{"measurement": "solubilité en milieu aqueux", "setting": "[1]; aqueous medium", "result": "n'est soluble en milieu aqueux qu'en présence de DMSO"}]}
{"compound": "CCCCCCCCCCCCCCCC(=O)NCCCC[C@H](NC(=O)CCCCCCCCCCCCCCC)C(=O)N[C@@H](CO)C(=O)N[C@@H](CO)C(=O)N[C@@H](CCC(N)=O)C(=O)N[C@@H](Cc1ccc(O)cc1)C(=O)N[C@H](C(=O)N[C@@H](CCCCN)C(=O)N[C@@H](C)C(=O)N[C@@H](CC(N)=O)C(=O)N[C@@H](CO)C(=O)N[C@@H](CCCCN)C(=O)N[C@@H](Cc1ccccc1)C(=O)N[C@H](C(=O)NCC(=O)N[C@H](C(=O)N[C@H](C(=O)N[C@@H](CCC(=O)O)C(=O)N[C@@H](C)C(=O)N[C@@H](C)C(=O)N[C@@H](C)C(=O)N[C@@H](C)C(=O)N[C@@H](C)C(=O)NCC(=O)N[C@H](C(=O)NCC(=O)N[C@H](C(=O)N[C@@H](CC(C)C)C(=O)N[C@H](C(=O)N[C@H](C(=O)O)C(C)C)[C@@H](C)O)[C@@H](C)CC)[C@@H](C)CC)[C@@H](C)O)[C@@H](C)CC)[C@@H](C)CC)[C@@H](C)CC", "note": "[lipopeptide n° 1] (Palmitoyl-K(Palmitoyl)SSQYIKANSKFIGITEAAAAAGIGILTV-OH)", "values": [{"measurement": "solubilité dans un mélange DMSO/eau 10% V/V", "setting": "[1]", "result": "pratiquement insoluble"}, {"measurement": "solubilité dans l'eau", "setting": "[1]; water", "result": "pratiquement insoluble"}, {"measurement": "solubilité dans l'eau après lyophilisation", "setting": "[1]; water, after lyophilisation", "result": "totalement insoluble"}]}
{"compound": "CCCCCCCCCCCCCCCC(=O)NCCCC[C@H](NC(=O)CCCCCCCCCCCCCCC)C(=O)NCC(=O)N[C@@H](CCCNC(=N)N)C(=O)N[C@@H](CCC(N)=O)C(=O)N[C@@H](Cc1ccc(O)cc1)C(=O)N[C@H](C(=O)N[C@@H](CCCCN)C(=O)N[C@@H](C)C(=O)N[C@@H](CC(N)=O)C(=O)N[C@@H](CO)C(=O)N[C@@H](CCCCN)C(=O)N[C@@H](Cc1ccccc1)C(=O)N[C@H](C(=O)NCC(=O)N[C@H](C(=O)N[C@H](C(=O)N[C@@H](CCC(=O)O)C(=O)N[C@@H](CCCNC(=N)N)C(=O)NCC(=O)N[C@@H](CCCNC(=N)N)C(=O)N[C@@H](C)C(=O)N[C@@H](C)C(=O)NCC(=O)N[C@H](C(=O)NCC(=O)N[C@H](C(=O)N[C@@H](CC(C)C)C(=O)N[C@H](C(=O)N[C@H](C(=O)O)C(C)C)[C@@H](C)O)[C@@H](C)CC)[C@@H](C)CC)[C@@H](C)O)[C@@H](C)CC)[C@@H](C)CC)[C@@H](C)CC", "note": "[lipopeptide n° 3] (Palmitoyl-K(Palmitoyl)GRQYIKANSKFIGITERGRAAGIGILTV-OH)", "values": [{"measurement": "solubilité dans un mélange DMSO/eau 10% V/V", "setting": "[1]", "result": "dissous"}, {"measurement": "solubilité dans l'acide acétique à 80%", "setting": "[1]; acide acétique à 80%", "result": "soluble"}, {"measurement": "solubilité", "setting": "[1]; acétate salt, compared with the trifluoroacétate", "result": "comparable à celle du trifluoroacétate"}, {"measurement": "stérilisation par filtration", "setting": "[1]; microfiltre de 0,22 µm", "result": "stérilisable"}, {"measurement": "solubilité dans le DMSO", "setting": "[1]; trifluoroacétate salt, DMSO", "result": "20 to 25", "unit": "mg/mL"}, {"measurement": "solubilité après dilution par de l'eau", "setting": "[1]; trifluoroacétate salt, DMSO solution diluted with water (DMSO 10%)", "result": "reste soluble"}]}
{"compound": "NEF 68-76: épitope potentiel de HLA-B7 (FPVTPQVPL; UniProt P04601 68-76, looked up, fragment)", "values": [{"measurement": "antigénicité (ELISPOT Interféron-γ)", "setting": "[2]", "result": "induit efficacement une réponse CTL spécifique"}]}
